“Also recorded” adds a separate entry of the source.
How the values were obtained:
[1] = test system: HT-29 xenografts; experiment: Subcutaneous colon cancer xenograft in athymic mice; assay type: in vivo; settings: for tumor volumes, treatment group compared with control group: HT-29 subcutaneous tumors, 1 mg/kg twice weekly for 28 days, vs DMSO
Description: DLD-1, HCT-116, and HT-29 cells were cultured for 6 days in soft agar in the presence of DMSO (control), 10 μM BAY 11-7082, or 10 μM BAY 11-7085. The data points represent the means of colony counts per field (20×) performed in 5 different regions of the culture dishes. The data shown represent a typical result of two separate experiments. FIGS. 2B,C, show athymic mice received subcutaneous injections of HT-29 (B) or HCT-116 (C) cells, followed by […] of BAY 11-7085 (dark bars) or DMSO (white bars) intraperitoneally twice weekly. The bars represent the 25-75% ranges of the tumor volumes and the horizontal lines in the bars are the medians. Using the Kruskal-Wallace statistical test to compare the median tumor volumes between BAY 11-7085 and DMSO yielded a p-value of 0.005 for HT-29 cells but >0.05 for HCT-116 cells.
HT-29 and HCT-116 cells were harvested in 0.25% trypsin-PBS-EDTA, washed once in media and PBS, and resuspended in PBS at 1 million cells per 200 μL. One million cells were injected either subcutaneously in the backs or intraperitoneally in 5 week old female nu/nu athymic mice (Charles River Labs). For the mice with subcutaneous tumors, the tumors were allowed to establish themselves for 10 days after which they were randomized to BAY 11-7085 or DMSO. For the mice with intraperitoneal tumors, the mice received DMSO or BAY 11-7085 (5 mg/kg) 24 hours before the cancer cells were injected intrapentoneally. All mice received BAY 11-7085 (5 mg/kg) or an equal volume of DMSO (˜200 μL) twice weekly for 21-32 days. Subcutaneous tumor sizes were determined by measuring the length and width with calipers. These studies were approved by the U. of Utah Institutional Review Board and Institutional Animal Care and Use Committee and performed in the Animal Resource Center. Mice were euthanized when they experienced a greater than 10% loss in body weight or if they appeared ill. Post-mortem examinations included sectioning of kidney, lung, and liver tissues which were stained with hematoxylin and eosin followed by examination for tissue toxicity/damage by an experienced mouse pathologist (E.J.E.) who was blinded to therapy.
(Wang et al., 1999) However, BAY 11-7082 or BAY 11-7085 alone inhibit colon cancer xenograft growth in athymic mice. HC-116, and HT-29 cell lines were used to generate subcutaneous tumors in athymic female mice. The mice were subsequently randomized to be treated with vehicle (DMSO) alone or BAY 11-7085 1 mg/kg twice weekly for 28 days.

[2] = test system: adherent HT-29 cells; experiment: Apoptosis assay (annexin V-FITC / propidium iodide flow cytometry), adherent cells; assay type: cell-based; settings: for level of apoptosis (annexin V-positive, propidium iodide-negative cells): doses up to 20 μM (MG-132 20 μM), 24 hours
Description: The data points represent the average percent of annexin V-positive, propidium iodide-negative cells (of the total cells counted) from triplicate experiments. The error bars represent the standard error of the means. […] The results shown are a graphic representation of individual flow cytometry results expressed as the percentage of cells that were annexin V-positive of those that excluded propidium iodide. […] An immunoblot of the lysates for cleaved PARP was performed. Each lane represents equal total protein concentrations. […] The cells were allowed to adhere to plastic dishes for 1 hour after which they were washed gently in PBS and stained with crystal violet. The crystal violet stained cells were solubilized in deoxycholate and the absorbance detected in a spectrophotometer at 590 nm. The adherent cells were expressed as a fraction of the controls Each data point represents the average of triplicate experiments and the error bars the standard errors of the means.
(§1) Single cell suspensions were plated at 100,000 cells per well in 24-well plates in media containing DMSO, BAY 11-7082, BAY 11-7085, or MG-132 for 8-24 hours in an incubator. Alternatively, DMSO, BAY 11-7082, BAY 11-7085, or MG-132 were added to cells that were confluent and adherent for several days. The nonadherent cells were aspirated off with the media and spun for 3 minutes at 2,000 rpm in 15 ml polypropylene tubes. The adherent cells were washed twice with PBS, dispersed in trypsin, and spun down for 3 minutes at 2,000 rpm in 15 ml polypropylene tubes. The nonadherent and adherent cells were resuspended in 1× binding buffer (10 mM HEPES/NaOH, pH 7.4, 140 mM NaCl, and 2.5 mM CaCl2) to a final concentration of 10^6 cells/ml. 100 μl of the cell solution were transferred to a 5 ml culture tube and incubated with 5 μl of annexin V-FITC-conjugated monoclonal antibody (Pharmingen) and 10 μl of propidium iodide (from a 50 μg/ml stock solution made in PBS) in the dark at 25° C. for 15 minutes. 400 μl of binding buffer was added to each tube and the cells were analyzed by flow cytometry immediately. The percent of apoptosis was determined as the percent of annexin V-positive, propidium iodide-negative cells of the total cells counted.

[3] = test system: transiently suspended DLD-1 cells; experiment: Apoptosis (annexin V) of transiently suspended cells allowed to readhere; assay type: cell-based
Description: The transiently suspended cells were lysed and allowed to bind to DNA oligonucleotides, containing the NF-κB consensus binding site, that were immobilized to 96-well plates. NF-κB protein bound to the oligonucleotides was detected by an antibody to the p65 subunit that only recognized p65 that is bound to DNA. The positive control was HeLa cells that were stimulated with TNFα A control was performed using excess free NF-κB oligonucleotides (Competitor). […] NF-κB binding activity was determined by the TransAM assay as in FIG. 5A. […] The data shown represent typical results of three separate experiments. […] An immunoblot for COX-2 was performed.
as §1
Since trypsin can activate protease-activated receptor-2 in colon cancer cell lines, which then results in increased cell proliferation, (Darmoul et al., 2001) NF-κB activation was determined in adherent and confluent DLD-1, HCT-116, Caco-2 and HT-29 cells that were removed from plastic dishes by trypsin or scraping. […] To determine whether the transient activation of NF-κB caused by cell readhesion would render all of the colon cancer cells tested more susceptible to BAY 11-7085-induced apoptosis, DLD-1, HCT-116, Caco-2 and HT-29 colon cancer cell lines were transiently suspended, treated with BAY 11-7085 and allowed to readhere.

[4] = test system: IκB phosphorylation; settings: Pierce et al., 1997; cited from earlier work
[5] = test system: JNK/SAPK and p38; settings: Pierce et al., 1997; cited from earlier work
[6] = test system: arthritis; settings: Pierce et al., 1997; cited from earlier work
[7] = HT-29, increasing concentrations, 8 hours, 24 h

Compound	tumor volumes, treatment group compared with control group [1]	level of apoptosis (annexin V-positive, propidium iodide-negative cells) ([2]; adherent HT-29)	share of transiently suspended, readhering cells that became apoptotic [3]	effect on IκB phosphorylation [4]	effect on JNK/SAPK and p38 [5]	effect on NF-κB and arthritis in rodent models [6]	p-value, Kruskal-Wallace test of median tumor volumes vs DMSO ([1]; HT-29, intraperitoneally twice weekly)	tumor volumes, treatment group compared with control group ([1]; 1 mg/kg)	percentage of apoptosis in the non-adherent cell fraction at high vs lower concentrations ([2]; HT-29, 50 and 100 μM, cells annexin V and propidium iodide positive (necrotic))	percentage of apoptotic cells among cells that became non-adherent [2, 7]	percentage of apoptotic cells among cells that remained adherent [2, 7]	apoptosis of adherent cell monolayers compared with transiently suspended cells ([2]; adherent HT-29, even the highest doses (10-100 μM))	in vitro apoptotic threshold during readhesion [3]	BAY 11-7085-induced apoptosis during readhesion ([3]; transiently suspended, treated, allowed to readhere 8 hours)
Cc1ccc(S(=O)(=O)/C=C/C#N)cc1 [BAY 11-7082, (2E)-3-(tolysulfonyl)-2-propenenitrile]	reduce tumor volumes	caused an increase in the level of apoptosis	vast majority	inhibit	activate JNK/SAPK and p38	inhibit NF-κB and arthritis in rodent models	–	–	–	–	–	–	–	–
CC(C)(C)c1ccc(S(=O)(=O)/C=C/C#N)cc1 [BAY 11-7085, (2E)-3-[4-(tertiarybutylphenyl)sulfonyl]-2-propenenitrile]	–	relatively greater for MG-132 than BAY 11-7085; also recorded: caused an increase in the level of apoptosis	vast majority	inhibit	activate JNK/SAPK and p38	inhibit NF-κB and arthritis in rodent models	0.005	statistically significant overall reduction in the tumor volumes; also recorded: reduce tumor volumes	decreased	majority; also recorded: predominantly apoptotic	only a minority	only a relatively small degree of apoptosis	> 20 µM	showed the same propensity for BAY 11-7085-induced apoptosis

From patent publication US7989495B2, “Compositions and methods for inhibiting NF-κB mediated tumorigenicity and adhesion dependent survival of cancer cells” (University of Utah Research Foundation, priority 2002, dated 2011)
